Consider 5 compounds from patent US6087355A, “Cephalosporin antibiotics” (Microcide Pharmaceuticals, Inc., priority 1996, dated 2000).

The subject of assay [1] is S. aureus strain ATCC 13709 (methicillin-susceptible). In words: Murine model for lethal bacteremic peritonitis. Type of assay: in vivo, female Swiss-Webster mice. Conditions: Staphylococcus aureus, ATCC13709, SC, 72 h; for responders at 0.3125 mg/kg / responders at 0.625 mg/kg / responders at 2.5 mg/kg / responders at 5 mg/kg: read-out: Survivors; for responders at 1.25 mg/kg: read-out: Survivors (converted); for ED50: two equal doses, IP challenge, read-out: ED50. The method in brief:
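Female Swiss-Webster mice were challenged IP with an LD100 inoculum in 7% hog gastric mucin, then given test drug subcutaneously in twofold increments (0.01–512 mg/kg) as two equal doses at challenge and 2 h later, 10 mice per group. Survival was scored at 72 h; PD50 (total mg/kg) was derived by probit.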

Another assay deals with E. faecium VanA(Van^R). The assay is described as follows: In vitro MIC, agar dilution. Conditions: for MIC: Enterococcus faecium, read-out: minimum inhibitory concentration (MIC). The format is cell-based. The method in brief:
(§1)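 Test agent, dissolved in PBS pH 7.2 with Tween 20 or DMSO if needed, was mixed into molten Mueller-Hinton agar over a two-fold series topping at 128 μg/mL. Log-phase isolates were then spot-inoculated at ~10^4 cfu and incubated at 35-36 °C for 16-20 hours.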
For orientation: In agar dilution, organisms are placed on agar that contains the substance at set levels.

Assay [2] relates to S. aureus ATCC 13709(Meth^S). In words: In vitro MIC, agar dilution. Type of assay: cell-based. Conditions: for MIC: Staphylococcus aureus, ATCC13709, S. aureus ATCC 13709(Meth^S), read-out: minimum inhibitory concentration (MIC); for minimum inhibitory concentration (MIC): S. aureus ATCC 13709(Meth^S). The method in brief: as §1
The next assay deals with E. faecalis ATCC 29212. In words: In vitro MIC, agar dilution. The format is cell-based. Conditions: for MIC: Enterococcus faecalis, ATCC29212, read-out: minimum inhibitory concentration (MIC). The method in brief: as §1
For another assay, the system named is E. faecalis VanB(Van^R). The assay is described as follows: In vitro MIC, agar dilution. Conditions: for MIC: Enterococcus faecalis, read-out: minimum inhibitory concentration (MIC). The format is cell-based. The method in brief: as §1
Assay [3] deals with S. aureus Spain #356(Meth^R). The assay is described as follows: In vitro MIC, agar dilution. Conditions: for MIC: Staphylococcus aureus, read-out: minimum inhibitory concentration (MIC). The format is cell-based. The method in brief: as §1
For assay [4], the system named is S. aureus PC1(Meth^S)(lac^+). In words: In vitro MIC, agar dilution. Type of assay: cell-based. Conditions: for MIC: Staphylococcus aureus, read-out: minimum inhibitory concentration (MIC). The method in brief: as §1
The next assay relates to S. aureus ATCC 29213. The assay is described as follows: In vitro MIC, agar dilution. Type of assay: cell-based. Conditions: for MIC: Staphylococcus aureus, ATCC29213, read-out: minimum inhibitory concentration (MIC). The method in brief:
as §1

Assay [5] has as its system S. haemolyticus 05(Meth^R). In words: In vitro MIC, agar dilution. The format is cell-based. Conditions: for MIC: Staphylococcus haemolyticus, read-out: minimum inhibitory concentration (MIC). The method in brief: as §1
The next assay concerns E. coli ATCC 25992. In words: In vitro MIC, agar dilution. Conditions: for MIC: Escherichia coli, ATCC25992, read-out: minimum inhibitory concentration (MIC). The format is cell-based. The method in brief: as §1
The subject of assay [6] is S. aureus ATCC 33593(Meth^R). The assay is described as follows: In vitro MIC, agar dilution. The format is cell-based. Conditions: for MIC: Staphylococcus aureus, ATCC33593, read-out: minimum inhibitory concentration (MIC). The method in brief:
as §1

In a further assay the test system is E. faecium A491(Amp^R). The assay is described as follows: In vitro MIC, agar dilution. Type of assay: cell-based. Conditions: for MIC: Enterococcus faecium, read-out: minimum inhibitory concentration (MIC). The method in brief: as §1
In another assay the test system is P. aeruginosa ATCC 27853. In words: In vitro MIC, agar dilution. Type of assay: cell-based. Conditions: for MIC: Pseudomonas aeruginosa, ATCC27853, read-out: minimum inhibitory concentration (MIC). The method in brief: as §1
Assay [7] concerns S. aureus 76(Meth^R)(lac^+). In words: In vitro MIC, agar dilution. The format is cell-based. Conditions: for MIC: Staphylococcus aureus, read-out: minimum inhibitory concentration (MIC). The method in brief:
as §1

Another assay relates to E. faecium ATCC 35667. In words: In vitro MIC, agar dilution. Type of assay: cell-based. Conditions: for MIC: Enterococcus faecium, ATCC35667, read-out: minimum inhibitory concentration (MIC). The method in brief: as §1
Assay [8] concerns S. aureus Col8A(Meth^S)(lac^-). In words: In vitro MIC, agar dilution. The format is cell-based. Conditions: S. aureus Col8A(Meth^S)(lac^-); for MIC: Staphylococcus aureus, read-out: minimum inhibitory concentration (MIC). The method in brief:
(§2)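 Two-fold dilutions (128 to ≤0.25 μg/mL, in duplicate) were poured into Mueller-Hinton agar. Log-phase broth cultures were spot-inoculated at about 10^4 cfu per spot and incubated 35-36°C for 16-20 hours; the MIC was the lowest concentration inhibiting growth. Col is a high-level PBP2a producer; Col 8A is its isogenic PBP2a-lacking partner.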

The subject of assay [9] is S. aureus Col(Meth^R)(lac^-). In words: In vitro MIC, agar dilution. The format is cell-based. Conditions: for MIC: Staphylococcus aureus, read-out: minimum inhibitory concentration (MIC). The method in brief:
as §2

Counter-ions that a name gives are not always drawn.

As usually defined, the ED50 is the dose that gives a 50% effect, or the effect in half of the subjects.

Consider `CN(C)C(=O)[C@@H](N)CSCc1cnccc1SC1=C(C(=O)O)N2C(=O)[C@@H](NC(=O)/C(=N\O)c3nc(N)sc3Cl)[C@H]2SC1` [Cmpd 58, (7R)-7-[(Z)-2-(2-amino-5-chlorothiazol-4-yl)-2-(hydroxyimino)acetamido]-3-(3-(2R-2-N,N-dimethylcarboxamido-2-aminoethylthiomethyl)pyrid-4-ylthio)-3-cephem-4-carboxylate, trifluoroacetic acid salt], for which, in [1], the responders at 0.3125 mg/kg stood at 10%. The responders at 0.625 mg/kg in [1] came out at 10%. The responders at 1.25 mg/kg in assay [1] was 20%. Besides, the responders at 2.5 mg/kg in [1] worked out at 50%. The responders at 5 mg/kg in assay [1] amounted to 50%. Also, the 50% effective dose (ED50) in assay [1] came out at 4.1 mg/kg. The MIC in the assay on E. faecium VanA(Van^R) was 2 µg/mL; in [2], 0.5 µg/mL; in the assay with E. faecalis ATCC 29212, 0.5 µg/mL; with E. faecalis VanB(Van^R) it was 0.5 µg/mL; in [3], 4 µg/mL; in assay [4], 1 µg/mL. The MIC with S. aureus ATCC 29213 is 0.5 µg/mL; in assay [5], 4 µg/mL; with E. coli ATCC 25992, 8 µg/mL; in [6], 2 µg/mL; in the assay on E. faecium A491(Amp^R) it was 16 µg/mL; in the assay on P. aeruginosa ATCC 27853, over 32 µg/mL. For the same compound, the MIC in [7] came out at 4 µg/mL; with E. faecium ATCC 35667, 1 µg/mL; in assay [8] it was 0.5 µg/mL; in assay [9], 4 µg/mL.

Consider `CNCCNCCSCc1nnsc1SC1=C(C(=O)O)N2C(=O)[C@@H](NC(=O)/C(=N\OCCF)c3nc(N)sc3Cl)[C@H]2SC1.O=C(O)C(F)(F)F` [Cmpd 28, (7R)-7-[(Z)-2-(2-amino-5-chlorothiazol-4-yl)-2-(2-fluoroethoxyimino)acetamido]-3-[(methylaminoethylaminoethylthiomethyl)-1,2,3-thiadiazol-5-ylthio]-3-cephem-4-carboxylate, trifluoroacetic acid salt], for which the responders at 0.3125 mg/kg in assay [1] was determined as 10%. Moreover, in assay [1], the responders at 0.625 mg/kg came to 10%. Also, the responders at 1.25 mg/kg in assay [1] is 40%. In addition, the responders at 2.5 mg/kg in assay [1] was 30%. Further, in assay [1], the responders at 5 mg/kg is 70%. The ED50 in assay [1] worked out at 3.01 mg/kg. For the same compound, the MIC was determined as 4 µg/mL in the assay on E. faecium VanA(Van^R); 0.13 µg/mL in assay [2]; 0.13 µg/mL with E. faecalis ATCC 29212; 0.25 µg/mL with E. faecalis VanB(Van^R); 2 µg/mL in assay [3]; 0.5 µg/mL in [4]. Moreover, the MIC with S. aureus ATCC 29213 amounted to 1 µg/mL; in assay [5], 4 µg/mL; with E. coli ATCC 25992, 2 µg/mL; in assay [6], 4 µg/mL; with E. faecium A491(Amp^R), 16 µg/mL; with P. aeruginosa ATCC 27853, 32 µg/mL. The MIC in [7] stood at 2 µg/mL; in the assay with E. faecium ATCC 35667 it was 1 µg/mL; in [8] it was 0.25 µg/mL; in [9], 2 µg/mL.

As to `CNCC(=O)NCCSCc1cnccc1SC1=C(C(=O)O)N2C(=O)[C@@H](NC(=O)/C(=N\O)c3nc(N)sc3Cl)[C@H]2SC1` [Cmpd 43, (7R)-7-[(Z)-2-(2-amino-5-chlorothiazol-4-yl)-2-(hydroxyimino)acetamido]-3-[3-(N-methylglycyl)aminoethylthiomethylpyrid-4-ylthio]-3-cephem-4-carboxylate, trifluoroacetic acid salt], the MIC with E. faecium VanA(Van^R) amounted to 1 µg/mL; in assay [2], 0.5 µg/mL; with E. faecalis ATCC 29212, 0.13 µg/mL; in the assay with E. faecalis VanB(Van^R), 0.25 µg/mL; in [3], 2 µg/mL; in assay [4] it was 1 µg/mL. Further, the MIC in the assay with S. aureus ATCC 29213 is 0.5 µg/mL; in assay [5], 4 µg/mL; in the assay with E. coli ATCC 25992, 8 µg/mL; in [6], 2 µg/mL; in the assay with E. faecium A491(Amp^R), 8 µg/mL; in the assay on P. aeruginosa ATCC 27853, over 32 µg/mL. Also, the MIC came out at 2 µg/mL in assay [7], 1 µg/mL in the assay on E. faecium ATCC 35667, 0.5 µg/mL in [8] and 2 µg/mL in assay [9].

As for `CNCCNCCSCc1nnsc1SC1=C(C(=O)O)N2C(=O)[C@@H](NC(=O)/C(=N\O)c3nc(N)sc3Cl)[C@H]2SC1.O=C(O)C(F)(F)F` [Cmpd 22, (7R)-7-[(Z)-2-(2-amino-5-chlorothiazol-4-yl)-2-(hydroxyimino)acetamido]-3-[(methylaminoethylaminoethylthiomethyl)-1,2,3-thiadiazol-5-ylthio]-3-cephem-4-carboxylate, trifluoroacetic acid salt], the “minimum inhibitory concentration (MIC)” value in the assay on E. faecium VanA(Van^R) was 2 µg/mL; in [2], 1 µg/mL; in the assay with E. faecalis ATCC 29212, 0.13 µg/mL; in the assay on E. faecalis VanB(Van^R), 0.5 µg/mL; in [3], 2 µg/mL; in assay [4], 1 µg/mL. Besides, the “minimum inhibitory concentration (MIC)” value was 0.25 µg/mL with S. aureus ATCC 29213; 2 µg/mL in assay [5]; 8 µg/mL in the assay with E. coli ATCC 25992; 2 µg/mL in assay [6]; 16 µg/mL in the assay on E. faecium A491(Amp^R); over 32 µg/mL with P. aeruginosa ATCC 27853. Moreover, the “minimum inhibitory concentration (MIC)” value in assay [7] worked out at 2 µg/mL; in the assay on E. faecium ATCC 35667 it was 1 µg/mL; in [8] it was 0.5 µg/mL; in [9], 2 µg/mL.

“(7R)-7-[(Z)-2-(aminothiazol-4-yl)-2-(hydroxyimino)acetamido]-3-[(guanidinoethylaminoethylthiomethyl)-1,2,3-thiadiazol-5-ylthio]-3-cephem-4-carboxylate, trifluoroacetic acid salt [Cmpd 12]”: the “minimum inhibitory concentration (MIC)” value with E. faecium VanA(Van^R) is 4 µg/mL; in assay [2] it was 0.25 µg/mL; in the assay on E. faecalis ATCC 29212, 0.25 µg/mL; in the assay with E. faecalis VanB(Van^R), 0.5 µg/mL; in assay [3], 2 µg/mL; in assay [4], 0.5 µg/mL. For the same compound, the “minimum inhibitory concentration (MIC)” value was 0.5 µg/mL in the assay on S. aureus ATCC 29213; 2 µg/mL in [5]; 8 µg/mL in the assay with E. coli ATCC 25992; 2 µg/mL in [6]; over 32 µg/mL in the assay with E. faecium A491(Amp^R); over 32 µg/mL with P. aeruginosa ATCC 27853. Also, the “minimum inhibitory concentration (MIC)” value came to 2 µg/mL in assay [7], 1 µg/mL in the assay with E. faecium ATCC 35667, 0.5 µg/mL in [8] and 2 µg/mL in assay [9].
